The record followed here is US5441968A, “Therapeutically active fluoro substituted benzimidazoles” (priority 1993, dated 1995).

For one data set, the system named is gastric acid secretion. As to the kind of experiment: Inhibition of gastric acid secretion in the conscious dog. Type of data set: in vivo, dog (Harrier). Particulars: for Inhibition of acid secretion: id. The procedure:
The potency for inhibition of acid secretion is measured in the male rat and the dog, both intravenously and intraduodenally. When it comes to relevance of the animal test data for potency of a given compound in man for the present type of compounds, it is believed that potency in man will correspond to a level somewhere between what is measured in the male rat and what is measured in the dog.
Inhibition of Gastric Acid Secretion and Bioavailability in the Conscious Dog
Harrier dogs of either sex were used. They were equipped with a duodenal fistula for the administration of test compounds or vehicle and a cannulated ventricular fistula for the collection of gastric secretions.
Before secretory tests the animals were fasted for about 18 h but water was freely allowed. Gastric acid secretion was stimulated by a 4 h infusion of histamine dihydrochloride (12 ml/h) at a dose producing about 80% of the individual maximal secretory response, and gastric juice collected in consecutive 30-min fractions. Test substance or vehicle was given id or iv 1 h after starting the histamine infusion, in a volume of 0.5 ml/kg body weight. The acidity of the gastric juice samples were determined by titration to pH 7.0, and the acid output calculated. The acid output in the collection periods after administration of test substance or vehicle were expressed as fractional responses, setting the acid output in the fraction preceding administration to 1.0. Percentage inhibition was calculated from fractional responses elicited by test compound and vehicle. ED50 values were obtained by graphical interpolation on log dose-response curves, or estimated from single-dose experiments under the assumption of the same slope of the dose-response curve for all test compounds. All results reported are based on acid output 2 h after dosing.

Data set [1] is described as follows: Chemical stability in aqueous buffer solution at different pH values. In kind it is physicochemical. Particulars: for Chemical stability at pH2 t 10%: pH 2, 37° C., time after which 10% has decomposed. The procedure: The chemical stability of the compounds of the invention has been followed kinetically at low concentration at 37° C. in aqueous buffer solution at different pH values. The results in Table 3 show the half life (t 1/2) at pH 7, that is the time period after which half the amount of the original compound remains unchanged, and t10% at pH 2, that is the time period after which 10% of the original compound has decomposed.

Consider `CCOC(=O)OCn1c([S+]([O-])Cc2cc(OC)ccn2)nc2c(F)cccc21` (stereo not drawn) [Example 2, 4-fluoro-2-[[(4-methoxy-2-pyridinyl)methyl]sulfinyl] -1H-benzimidazole-1-ylmethyl ethyl carbonate], for which the 50% effect level in the data set on gastric acid secretion (Canis lupus familiaris, dog, id administration, histamine-stimulated, acid output 2 h after dosing) (ED50) was put at a dose of 1.3 µmol/kg. Also, the “Inhibition of acid secretion” value was 55% in the data set on gastric acid secretion (Dog 1, 1.5 μmol/kg) and “no effect” in the data set with gastric acid secretion (Dog 2, 1.5 μmol/kg). The “Chemical stability at pH2 t 10%” value in data set [1] amounted to 3 h. The half-life in data set [1] (pH 7, 37° C., read-out: Chemical stability at pH 7 t1/2 (converted)) is 16 h.

Consider `COc1ccnc(C[S+]([O-])c2nc3c(F)cccc3n2COC(=O)OCc2ccccc2)c1` (stereo not drawn) [Example 1, 4-fluoro-2-[[(4-methoxy-2-pyridinyl)methyl]sulfinyl]-1H-benzimidazole-1-ylmethyl benzyl carbonate], for which the “Chemical stability at pH2 t 10%” value in data set [1] stood at 2 h.
